The values below come from US9695155B2, “Herbicidal substituted pyrimidinyloxy benzene compounds” (E. I. DU PONT DE NEMOURS AND COMPANY, priority 2013, dated 2017).

Common to all, as to assay: Test E postemergence
In one assay the test system is corn. The assay is classed as in vivo, Zea mays. An excerpt: (§1) Seeds of plant species selected from corn (Zea mays), soybean (Glycine max), velvetleaf (Abutilon theophrasti), lambsquarters (Chenopodium album), wild poinsettia (Euphorbia heterophylla), palmer pigweed (Amaranthus palmeri), waterhemp (common waterhemp, Amaranthus rudis), surinam grass (Brachiaria decumbens), large (Lg) crabgrass (Digitaria sanguinalis), Brazilian crabgrass (Digitaria horizontalis), fall panicum (Panicum dichotomiflorum), giant foxtail (Setaria faberii), green foxtail (Setaria viridis), goosegrass (Eleusine indica), johnsongrass (Sorghum halepense), ragweed (common ragweed, Ambrosia elatior), barnyardgrass (Echinochloa crus-galli), sandbur (southern sandbur, Cenchrus echinatus), arrowleaf sida (Sida rhombifolia), Italian ryegrass (Lolium multiflorum), dayflower (Virginia (VA) dayflower, Commelina virginica), field bindweed (Convolvulus arvensis), morningglory (Ipomoea coccinea), nightshade (eastern black nightshade, Solanum ptycanthum), kochia (Kochia scoparia), yellow nutsedge (Cyperus esculentus), cocklebur (common cocklebur, Xanthium strumarium), smartweed (ladysthumb smartweed, and hairy beggarticks (Bidens pilosa), were planted into a silt loam soil and treated preemergence with test chemicals formulated in a non-phytotoxic solvent mixture which included a surfactant.
(§2) At the same time, plants from these crop and weed species and also horseweed (Canada horseweed, Conyza canadensis), waterhemp_RES1, (ALS & Triazine resistant common waterhemp, Amaranthus rudis), and waterhemp_RES2, (ALS & HPPD resistant common waterhemp, Amaranthus rudis) were planted in pots containing Redi-Earth® planting medium (Scotts Company, 14111 Scottslawn Road, Marysville, Ohio 43041) comprising spaghnum peat moss, vermiculite, wetting agent and starter nutrients were treated with postemergence applications of test chemicals formulated in the same manner. Plants ranged in height from 2 to 18 cm for postemergence treatments (1- to 4-leaf stage). Treated plants and controls were maintained in a greenhouse for 14 to 21 days, after which time all species were compared to controls and visually evaluated. Plant response ratings, summarized in Table E, are based on a scale of 0 to 100 where 0 is no effect and 100 is complete control. A dash (-) response means no test result.

In the next assay the test system is wild poinsettia. The class given is in vivo, Euphorbia heterophylla.
Text: as §1, §2

A further assay relates to arrowleaf sida. The class given is in vivo, Sida rhombifolia.
Text: as §1, §2

The test system of the next assay is dayflower. The assay is classed as in vivo, Commelina virginica.
Text: as §1, §2

The mark [1] stands for this setting: Postemergence, 31 g ai/ha, scale 0 to 100.
Where [2] appears, read: Postemergence, 62 g ai/ha, scale 0 to 100.
The mark [3] stands for this setting: Postemergence, 125 g ai/ha, scale 0 to 100.
[4] abbreviates: Postemergence, 250 g ai/ha, scale 0 to 100.
Where [5] appears, read: postemergence, 16 g ai/ha, scale 0 to 100, 0 no effect, 100 complete control.
The mark [6] stands for this setting: postemergence, 8 g ai/ha, scale 0 to 100, 0 no effect, 100 complete control.

Regarding `FC(F)(F)c1cnn(-c2ccccc2Oc2ncc(Cl)cn2)c1` [Compound 16], the “Plant response rating, Corn” value with corn (setting [1]) is recorded as 0; in the assay with corn (setting [2]), 0; in the assay on corn (setting [3]), 10; in the assay on corn (setting [4]), 15; in the assay on corn (setting [5]), 0. Also, the “Plant response rating, Poinsettia, Wild” value in the assay on wild poinsettia (setting [1]) was 60; in the assay on wild poinsettia (setting [2]), 60; in the assay with wild poinsettia (setting [3]) it was 70; with wild poinsettia (setting [4]) it was 80; with wild poinsettia (setting [5]), 50. Further, the “Plant response rating, Arrowleaf Sida” value is recorded as 70 in the assay on arrowleaf sida (setting [1]); 75 in the assay on arrowleaf sida (setting [2]); 80 in the assay on arrowleaf sida (setting [3]); 90 in the assay with arrowleaf sida (setting [4]); 50 in the assay on arrowleaf sida (setting [5]). For the same molecule, the “Plant response rating, Dayflower, VA” value in the assay with dayflower (setting [1]) is listed as 10; in the assay with dayflower (setting [2]), 15; in the assay with dayflower (setting [3]) it was 30; with dayflower (setting [4]), 40; with dayflower (setting [5]) it was 0.

On to `Clc1cnc(Oc2cccc(Br)c2-n2cc(Br)cn2)nc1` [Compound 65], for which the “Plant response rating, Corn” value with corn (setting [1]) came out at 10; with corn (setting [2]), 10; in the assay on corn (setting [3]) it was 10; in the assay with corn (setting [6]), 0; in the assay on corn (setting [5]), 0. For the same molecule, the “Plant response rating, Poinsettia, Wild” value worked out at 20 with wild poinsettia (setting [1]); 20 in the assay on wild poinsettia (setting [2]); 40 in the assay with wild poinsettia (setting [3]); 15 in the assay on wild poinsettia (setting [6]); 20 in the assay with wild poinsettia (setting [5]). In addition, the “Plant response rating, Arrowleaf Sida” value with arrowleaf sida (setting [1]) amounted to 60; with arrowleaf sida (setting [2]), 80; with arrowleaf sida (setting [3]), 80; in the assay with arrowleaf sida (setting [6]), 55; in the assay on arrowleaf sida (setting [5]), 50. The “Plant response rating, Dayflower, VA” value in the assay with dayflower (setting [1]) is 10; in the assay with dayflower (setting [2]) it was 10; in the assay on dayflower (setting [3]), 20; in the assay on dayflower (setting [6]), 5; with dayflower (setting [5]), 5.

For the molecule `Fc1cnc(Oc2ccccc2-n2cc(Br)cn2)nc1` [Compound 10, 2-[2-(4-bromo-1H-pyrazol-1-yl)phenoxy]-5-fluoropyrimidine], the corn plant response (injury) rating, 0-100 at 31 g/ha in the assay with corn (Zea mays, post-emergence, Postemergence, 31 g ai/ha, scale 0 to 100) stood at 0%. For the same molecule, in the assay on corn (Zea mays, post-emergence, Postemergence, 62 g ai/ha, scale 0 to 100), the corn plant response (injury) rating, 0-100 at 62 g/ha stood at 0%. This molecule returned a corn plant response (injury) rating, 0-100 at 125 g/ha in the assay on corn (Zea mays, post-emergence, Postemergence, 125 g ai/ha, scale 0 to 100) of 0%. The same molecule registered a corn plant response (injury) rating, 0-100 at 250 g/ha in the assay on corn (Zea mays, post-emergence, Postemergence, 250 g ai/ha, scale 0 to 100) of 0%. The corn plant response (injury) rating, 0-100 at 16 g/ha in the assay with corn (Zea mays, post-emergence, postemergence, 16 g ai/ha, scale 0 to 100, 0 no effect, 100 complete control) turned out to be 0%. Besides, the pest or weed control at 31 g/ha amounted to 20% in the assay with wild poinsettia (Euphorbia heterophylla, post-emergence, Postemergence, 31 g ai/ha, scale 0 to 100, read-out: Plant response rating, Poinsettia, Wild); 50% with arrowleaf sida (Sida rhombifolia, post-emergence, Postemergence, 31 g ai/ha, scale 0 to 100, read-out: Plant response rating, Arrowleaf Sida); 10% in the assay on dayflower (Commelina virginica, post-emergence, Postemergence, 31 g ai/ha, scale 0 to 100, read-out: Plant response rating, Dayflower, VA). The pest or weed control at 62 g/ha in the assay on wild poinsettia (Euphorbia heterophylla, post-emergence, Postemergence, 62 g ai/ha, scale 0 to 100, read-out: Plant response rating, Poinsettia, Wild) is 30%; in the assay on arrowleaf sida (Sida rhombifolia, post-emergence, Postemergence, 62 g ai/ha, scale 0 to 100, read-out: Plant response rating, Arrowleaf Sida), 70%; in the assay with dayflower (Commelina virginica, post-emergence, Postemergence, 62 g ai/ha, scale 0 to 100, read-out: Plant response rating, Dayflower, VA), 40%. Moreover, the pest or weed control at 125 g/ha in the assay on wild poinsettia (Euphorbia heterophylla, post-emergence, Postemergence, 125 g ai/ha, scale 0 to 100, read-out: Plant response rating, Poinsettia, Wild) is 30%; in the assay on arrowleaf sida (Sida rhombifolia, post-emergence, Postemergence, 125 g ai/ha, scale 0 to 100, read-out: Plant response rating, Arrowleaf Sida), 80%; in the assay with dayflower (Commelina virginica, post-emergence, Postemergence, 125 g ai/ha, scale 0 to 100, read-out: Plant response rating, Dayflower, VA), 50%. Further, the pest or weed control at 250 g/ha amounted to 60% with wild poinsettia (Euphorbia heterophylla, post-emergence, Postemergence, 250 g ai/ha, scale 0 to 100, read-out: Plant response rating, Poinsettia, Wild); 85% with arrowleaf sida (Sida rhombifolia, post-emergence, Postemergence, 250 g ai/ha, scale 0 to 100, read-out: Plant response rating, Arrowleaf Sida); 75% in the assay with dayflower (Commelina virginica, post-emergence, Postemergence, 250 g ai/ha, scale 0 to 100, read-out: Plant response rating, Dayflower, VA). Besides, the pest or weed control at 16 g/ha in the assay on wild poinsettia (Euphorbia heterophylla, post-emergence, postemergence, 16 g ai/ha, scale 0 to 100, 0 no effect, 100 complete control, read-out: Plant response rating, Poinsettia, Wild) came to 5%; with arrowleaf sida (Sida rhombifolia, post-emergence, postemergence, 16 g ai/ha, scale 0 to 100, 0 no effect, 100 complete control, read-out: Plant response rating, Arrowleaf Sida), 40%; in the assay with dayflower (Commelina virginica, post-emergence, postemergence, 16 g ai/ha, scale 0 to 100, 0 no effect, 100 complete control, read-out: Plant response rating, Dayflower, VA) it was 5%.
